# Experiments:
# Assay type in all cases: cell-based
# HL-60 (TB) = assay: NCI screen, growth of human tumor cells: Leukemia HL-60 (TB); conditions: HL-60 (TB) (Leukemia), 10^−4 molar
# Experimental: (§1) In the NCI screening process, each compound was tested and described by a minimum of 60 data points. The test data include, but are not limited to the type of cancer, the molar concentration used in the screen, and the percent growth of the cancer. In some cases, NMR and elemental analysis were used for structural assignment.
# SR = assay: NCI screen, growth of human tumor cells: Leukemia SR; conditions: SR (Leukemia), 10^−4 molar
# Procedure, shortened: (§2)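 Percent-growth read-out from the NCI cancer cell screen; data annotated by cancer type and molar concentration, ≥60 points per compound.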
# HOP-92 = assay: NCI screen, growth of human tumor cells: Non-Small Cell Lung HOP-92; conditions: HOP-92 (Non-Small Cell Lung), 10^−4 molar
# Procedure, shortened: as §2
# NCI-H460 = assay: NCI screen, growth of human tumor cells: Non-Small Cell Lung NCI-H460; conditions: NCI-H460 (Non-Small Cell Lung), 10^−4 molar
# Procedure, shortened: as §2
# SW620 = assay: NCI screen, growth of human tumor cells: Colon Cancer SW620
# Experimental: as §1
# SF-268 = assay: NCI screen, growth of human tumor cells: CNS Cancer SF-268
# Procedure, shortened: as §2
# SF-295 = assay: NCI screen, growth of human tumor cells: CNS Cancer SF-295
# Procedure, shortened: as §2
# SF-539 = assay: NCI screen, growth of human tumor cells: CNS Cancer SF-539
# Procedure, shortened: as §2
# SNB-75 = assay: NCI screen, growth of human tumor cells: CNS Cancer SNB-75; conditions: SNB-75 (CNS Cancer), 10^−4 molar
# Procedure, shortened: as §2
# U-251 = assay: NCI screen, growth of human tumor cells: CNS Cancer U-251; conditions: U-251 (CNS Cancer), 10^−4 molar
# Procedure, shortened: as §2
# LOXIMVI = assay: NCI screen, growth of human tumor cells: Melanoma LOXIMVI; conditions: for percent of growth of human tumor cells: LOXIMVI (Melanoma); for % Growth: LOXIMVI
# Procedure, shortened: as §2
# UACC-62 = assay: NCI screen, growth of human tumor cells: Melanoma UACC-62
# Procedure, shortened: as §2
# 786-0 = assay: NCI screen, growth of human tumor cells: Renal Cancer 786-0; conditions: 786-0 (Renal Cancer), 10^−4 molar
# Procedure, shortened: as §2
# ACHN = assay: NCI screen, growth of human tumor cells: Renal Cancer ACHN; conditions: ACHN (Renal Cancer), 10^−4 molar
# Procedure, shortened: as §2
# CAKI-1 = assay: NCI screen, growth of human tumor cells: Renal Cancer CAKI-1; conditions: CAKI-1 (Renal Cancer), 10^−4 molar
# Procedure, shortened: as §2
# UO-31 = assay: NCI screen, growth of human tumor cells: Renal Cancer UO-31; conditions: UO-31 (Renal Cancer), 10^−4 molar
# Procedure, shortened: as §2
# MCF 7 = assay: NCI screen, growth of human tumor cells: Breast Cancer MCF 7; conditions: MCF 7 (Breast Cancer), 10^−4 molar
# Procedure, shortened: as §2
# MCF7/ADR-RES = assay: NCI screen, growth of human tumor cells: Breast Cancer MCF7/ADR-RES; conditions: for % Growth: MCF7/ADR-RES
# Procedure, shortened: as §2
# BT-549 = assay: NCI screen, growth of human tumor cells: Breast Cancer BT-549; conditions: for percent of growth of human tumor cells: BT-549 (Breast Cancer), 10^−4 molar
# Procedure, shortened: as §2
# T-47D = assay: NCI screen, growth of human tumor cells: Breast Cancer T-47D; conditions: T-47D (Breast Cancer), 10^−4 molar
# Experimental: as §1
# human cancer cells = assay: NCI screen summary over the cancers tested (negative growth of human cancer cells); conditions: 10^−4 M conc.; cancers with negative growth / cancers tested
# Experimental: as §1
# The derivatives in the tables are grouped using the same category as in the tables 1-6.
# CCRF-CEM = assay: NCI screen, growth of human tumor cells: Leukemia CCRF-CEM; conditions: CCRF-CEM (Leukemia), 10^−4 molar
# Procedure, shortened: as §2
# MOLT-4 = assay: NCI screen, growth of human tumor cells: Leukemia MOLT-4; conditions: MOLT-4 (Leukemia), 10^−4 molar
# Procedure, shortened: as §2
# RPMI-8226 = assay: NCI screen, growth of human tumor cells: Leukemia RPMI-8226; conditions: RPMI-8226 (Leukemia), 10^−4 molar
# Procedure, shortened: as §2
# HOP-62 = assay: NCI screen, growth of human tumor cells: Non-Small Cell Lung HOP-62
# Procedure, shortened: as §2
# NCI-H522 = assay: NCI screen, growth of human tumor cells: Non-Small Cell Lung NCI-H522; conditions: NCI-H522 (Non-Small Cell Lung), 10^−4 molar
# Procedure, shortened: as §2
# NCI-H23 = assay: NCI screen, growth of human tumor cells: Non-Small Cell Lung NCI-H23; conditions: NCI-H23 (Non-Small Cell Lung), 10^−4 molar
# Procedure, shortened: as §2
# HCT-116 = assay: NCI screen, growth of human tumor cells: Colon Cancer HCT-116; conditions: HCT-116 (Colon Cancer), 10^−4 molar
# Procedure, shortened: as §2
# HCT-15 = assay: NCI screen, growth of human tumor cells: Colon Cancer HCT-15; conditions: HCT-15 (Colon Cancer), 10^−4 molar
# Procedure, shortened: as §2
# KM12 = assay: NCI screen, growth of human tumor cells: Colon Cancer KM12; conditions: KM12 (Colon Cancer), 10^−4 molar
# Procedure, shortened: as §2
# SK-MEL-2 = assay: NCI screen, growth of human tumor cells: Melanoma SK-MEL-2; conditions: SK-MEL-2 (Melanoma), 10^−4 molar
# Procedure, shortened: as §2
# SK-OV-3 = assay: NCI screen, growth of human tumor cells: Ovarian Cancer SK-OV-3; conditions: SK-OV-3 (Ovarian Cancer), 10^−4 molar
# Procedure, shortened: as §2
# OVCAR-3 = assay: NCI screen, growth of human tumor cells: Ovarian Cancer OVCAR-3; conditions: OVCAR-3 (Ovarian Cancer), 10^−4 molar
# Procedure, shortened: as §2
# OVCAR-4 = assay: NCI screen, growth of human tumor cells: Ovarian Cancer OVCAR-4; conditions: OVCAR-4 (Ovarian Cancer), 10^−4 molar
# Procedure, shortened: as §2
# RXF-393 = assay: NCI screen, growth of human tumor cells: Renal Cancer RXF-393; conditions: RXF-393 (Renal Cancer), 10^−4 molar
# Procedure, shortened: as §2
# SN12C = assay: NCI screen, growth of human tumor cells: Renal Cancer SN12C; conditions: SN12C (Renal Cancer), 10^−4 molar
# Procedure, shortened: as §2
# HS 578T = assay: NCI screen, growth of human tumor cells: Breast Cancer HS 578T; conditions: HS 578T (Breast Cancer), 10^−4 molar
# Procedure, shortened: as §2
smiles,measurement,setting,value
C[Si](C)(OCCS(=O)(=O)O)C1S(=O)(=O)OCCOS1(=O)=O [NSC 674991],percent of growth of human tumor cells,HL-60 (TB),15%
same,percent of growth of human tumor cells,SR,20%
same,percent of growth of human tumor cells,HOP-92,22%
same,percent of growth of human tumor cells,NCI-H460,22%
same,% Growth,"SW620; SW620, 10^−4 molar",−49%
same,% Growth,"SW620; SW620, 10^−5 molar",34%
same,% Growth,"SW620; SW620, 10^−6 molar",25%
same,percent of growth of human tumor cells,"SF-268; SF-268 (CNS Cancer), 10^−4 molar",11%
same,% Growth,"SF-295; SF-295, 10^−4 molar",−31%
same,% Growth,"SF-295; SF-295, 10^−5 molar",31%
same,percent of growth of human tumor cells,"SF-539; SF-539 (CNS Cancer), 10^−4 molar",4%
same,percent of growth of human tumor cells,SNB-75,−24%
same,percent of growth of human tumor cells,U-251,9%
same,percent of growth of human tumor cells,LOXIMVI; 10^−4 molar,10%
same,% Growth,LOXIMVI; 10^−4 molar,−90%
same,% Growth,LOXIMVI; 10^−5 molar,63%
same,% Growth,"UACC-62; UACC-62, 10^−4 molar",5%
same,% Growth,"UACC-62; UACC-62, 10^−5 molar",57%
same,percent of growth of human tumor cells,786-0,16%
same,percent of growth of human tumor cells,ACHN,−10%
same,percent of growth of human tumor cells,CAKI-1,−8%
same,percent of growth of human tumor cells,UO-31,29%
same,percent of growth of human tumor cells,MCF 7,22%
same,percent of growth of human tumor cells,"MCF7/ADR-RES; MCF7/ADR-RES (Breast Cancer), 10^−4 molar",20%
same,percent of growth of human tumor cells,BT-549,11%
same,percent of growth of human tumor cells,T-47D,18%
same,Percentage of cancers showing negative growth cancers tested,human cancer cells,10^−4 M conc. = 6/21 = 28.6%
N#CCCC1(CCC#N)S(=O)(=O)OCCOS1(=O)=O [NSC 665941],percent of growth of human tumor cells,CCRF-CEM,5%
same,percent of growth of human tumor cells,HL-60 (TB),−17%
same,percent of growth of human tumor cells,MOLT-4,6%
same,percent of growth of human tumor cells,RPMI-8226,24%
same,percent of growth of human tumor cells,SR,10%
same,% Growth,"HOP-62; HOP-62, 10^−4 molar",16%
same,% Growth,"HOP-62; HOP-62, 10^−5 molar",46%
same,% Growth,"HOP-62; HOP-62, 10^−6 molar",48%
same,% Growth,"HOP-62; HOP-62, 10^−7 molar",25%
same,% Growth,"HOP-62; HOP-62, 10^−8 molar",25%
same,percent of growth of human tumor cells,NCI-H522,18%
same,percent of growth of human tumor cells,NCI-H23,25%
same,percent of growth of human tumor cells,HCT-116,26%
same,percent of growth of human tumor cells,HCT-15,27%
same,percent of growth of human tumor cells,KM12,27%
same,% Growth,"SF-268; SF-268, 10^−4 molar",24%
same,% Growth,"SF-268; SF-268, 10^−5 molar",48%
same,% Growth,"SF-295; SF-295, 10^−4 molar",7%
same,% Growth,"SF-295; SF-295, 10^−5 molar",47%
same,% Growth,"SF-539; SF-539, 10^−4 molar",−48%
same,% Growth,"SF-539; SF-539, 10^−5 molar",47%
same,percent of growth of human tumor cells,SNB-75,28%
same,percent of growth of human tumor cells,U-251,20%
same,percent of growth of human tumor cells,LOXIMVI; 10^−4 molar,5%
same,percent of growth of human tumor cells,SK-MEL-2,26%
same,% Growth,"UACC-62; UACC-62, 10^−4 molar",9%
same,% Growth,"UACC-62; UACC-62, 10^−5 molar",49%
same,percent of growth of human tumor cells,SK-OV-3,28%
same,percent of growth of human tumor cells,OVCAR-3,12%
same,percent of growth of human tumor cells,OVCAR-4,4%
same,percent of growth of human tumor cells,786-0,6%
same,percent of growth of human tumor cells,ACHN,13%
same,percent of growth of human tumor cells,RXF-393,23%
same,percent of growth of human tumor cells,SN12C,15%
same,percent of growth of human tumor cells,CAKI-1,28%
same,percent of growth of human tumor cells,MCF 7,18%
same,% Growth,MCF7/ADR-RES; 10^−4 molar,1%
same,% Growth,MCF7/ADR-RES; 10^−5 molar,63%
same,% Growth,MCF7/ADR-RES; 10^−6 molar,69%
same,% Growth,MCF7/ADR-RES; 10^−7 molar,68%
same,% Growth,MCF7/ADR-RES; 10^−8 molar,56%
same,percent of growth of human tumor cells,BT-549,18%
same,% Growth,"BT-549; BT-549, 10^−4 molar",18%
same,% Growth,"BT-549; BT-549, 10^−5 molar",33%
same,percent of growth of human tumor cells,HS 578T,−8%
same,percent of growth of human tumor cells,T-47D,25%
same,Percentage of cancers showing negative growth cancers tested,human cancer cells,10^−4 M conc. = 3/32 = 9%

# From patent US8124793B2, “Derivatives of ethylene methanedisulfonate as cancer chemotherapeutic agents” (priority 2007, dated 2012)
